Experiment [1] deals with T1, CDK4/CycD1 (Homo sapiens, UniProt P11802).
T1 construct: purchased ProQuinase GmbH, Freiburg, Germany (assay service)
Nature of the experiment: 33PanQuinase Activity Assay (ProQuinase GmbH). Type of experiment: biochemical. The text has this: ^33PanQuinase Activity Assay (ProQuinase GmbH) and SelectScreen™ Kinase Profiling (Invitrogen Corp.)
^33PanQuinase Activity Assay is a proprietary, radioisotopic protein kinase assay developed by ProQuinase GmbH, Freiburg, Germany. Details on assay conditions can be found on the company's website.

Experiment [2] concerns HCT116 cells. Nature of the experiment: 96-well XTT cell survival assay (HCT116 cells). The note with it: Homo sapiens, HCT-116, 72 hours. The class given is cell-based. The protocol: HCT116 cells were maintained in McCoy's 5a Medium supplemented with 10% fetal bovine serum (FBS) 2 mM L-Glutamine and 100 units penicillin/100 μg streptomycin, at 37° C. in 5% CO2.
Compounds were tested in the following assays in duplicate.
96-well XTT assay (HCT116 cells): Cells were grown in growth media containing various concentrations of compounds (duplicates) on a 96-well flat bottom plate for 72 hours at 37° C. in 5% CO2. The starting cell number was 5000 cells per well and volume was 120 μl. At the end of the 72-hour incubation, 40 μl of XTT labeling mixture (50:1 solution of sodium 3′-[1-(phenylaminocarbonyl)-3,4-tetrazolium]-bis (4-methoxy-6-nitro) benzene sulfonic acid hydrate and Electron-coupling reagent: PMS (N-methyl dibenzopyrazine methyl sulfate) were added to each well of the plate. After an additional 2-6 hours of incubation at 37° C., the absorbance reading at 650 nm was measured with a spectrophotometer.
In general terms: Tetrazolium dyes change colour on reduction, which living cells bring about.

The target of experiment [3] is Met (Homo sapiens, UniProt P08581). Briefly: MET Luminescence-based Enzyme Assay (Kinase-Glo). The class given is biochemical. Also noted: Sf9 insect cell culture expressing the kinase domain of human Met; 6x Histidine tag (TEV-cleavable) (cleaved yes); made in house; host or cells: Sf9 insect cells. An excerpt:
Homogeneous luminescence-based inhibitor screening assays were developed for c-Abl, MET, AurA, and PDK1 kinases (among others). Each of these assays made use of an ATP depletion assay (Kinase-Glo™, Promega Corporation, Madison, Wis.) to quantitate kinase activity. The Kinase-Glo™ format uses a thermostable luciferase to generate luminescent signal from ATP remaining in solution following the kinase reaction. The luminescent signal is inversely correlated with the amount of kinase activity.
Dose response was analyzed using the equation: y=min+{(max−min)/(1 +10^[compound]-logIC50)}, where y is the observed initial slope, max=the slope in the absence of inhibitor, min=the slope at infinite inhibitor, and the IC50 is the [compound] that corresponds to ½ the total observed amplitude (Amplitude=max−min).
The cell pellets produced from half of a 12 L Sf9 insect cell culture expressing the kinase domain of human Met were resuspended in a buffer containing 50 mM Tris-HCl pH 7.7 and 250 mM NaCl, in a volume of approximately 40 ml per 1 L of original culture. One tablet of Roche Complete, EDTA-free protease inhibitor cocktail (Cat# 1873580) was added per 1 L of original culture. The suspension was stirred for 1 hour at 4° C. Debris was removed by centrifugation for 30 minutes at 39,800×g at 4° C. The supernatant was decanted into a 500 ml beaker and 10 ml of 50% slurry of Qiagen Ni-NTA Agarose (Cat# 30250) that had been pre-equilibrated in 50 mM Tris-HCl pH 7.8, […], 10% Glycerol, 10 mM Imidazole, and 10 mM Methionine, were added and stirred for 30 minutes at 4° C. The sample was then poured into a drip column at 4° C. and washed with 10 column volumes of 50 mM Tris-HCl pH 7.8, 500 mM NaCl, 10% Glycerol, 10 mM Imidazole, and 10 mM Methionine. The protein was eluted using a step gradient with two column volumes each of the same buffer containing 50 mM, 200 mM, and 500 mM Imidazole, sequentially. The 6× Histidine tag was cleaved overnight using 40 units of TEV protease (Invitrogen Cat# 10127017) per 1 mg of protein while dialyzing in 50 mM Tris-HCl pH 7.8, 500 mM NaCl, 10% Glycerol, 10 mM Imidazole, and 10 mM Methionine at 4° C. The 6× Histidine tag was removed by passing the sample over a Pharmacia 5 ml IMAC column (Cat# 17-0409-01) charged with Nickel and equilibrated in 50 mM Tris-HCl pH 7.8, 500 mM NaCl, 10% Glycerol, 10 mM Imidazole, and 10 mM Methionine. The cleaved protein bound to the Nickel column at a low affinity and was eluted with a step gradient. The step gradient was run with 15% and then 80% of the B-side (A-side=50 mM Tris-HCl pH 7.8, 500 mM NaCl, 10% Glycerol, 10 mM Imidazole, and 10 mM Methionine; B-side=50 mM Tris-HCl pH 7.8, 500 mM NaCl, 10% Glycerol, 500 mM Imidazole, and 10 mM Methionine) for 4 column volumes each. The Met protein eluted in the first step (15%), whereas the non-cleaved Met and the cleaved Histidine tag eluted in the 80% fractions. The 15% fractions were pooled after SDS-PAGE gel analysis confirmed the presence of cleaved Met; further purification was done by gel filtration chromatography on an Amersham Biosciences HiLoad 16/60 Superdex 200 prep grade (Cat# 17-1069-01) equilibrated in 50 mM Tris-HCl pH 8.5, 150 mM NaCl, ˜10% Glycerol and 5 mM DTT. The cleanest fractions were combined and concentrated to ˜10.4 mg/ml by centrifugation in an Amicon Ultra-15 10,000 Da MWCO centrifugal filter unit (Cat# UFC901024).
MET Luminescence-based Enzyme Assay
Materials: Poly Glu-Tyr (4:1) substrate (Sigma Cat# P-0275), ATP (Sigma Cat#A-3377, FW=551), HEPES buffer, pH 7.5, Bovine serum albumin (BSA) (Roche 92423420), MgCl2, Staurosporine (Streptomyces sp. Sigma Cat#85660-1MG), white Costar 384-well flat-bottom plate (VWR Cat#29444-088). MET kinase (see below), Kinase-Glo™ (Promega Cat#V6712).
Stock Solutions: 10 mg/ml poly Glu-Tyr in water, stored at −20° C.; 100 mM HEPES buffer, pH 7.5 (5 ml 1M stock+45 ml miliQH2O); 10 mM ATP (5.51 mg/ml in dH2O) stored at −20° C. […]
In general terms: Kinase-Glo measures the ATP left after a reaction by luminescence.

Structures are written as SMILES. pIC50: −log10 of the molar value.

T1 sequence (P11802 whole entry): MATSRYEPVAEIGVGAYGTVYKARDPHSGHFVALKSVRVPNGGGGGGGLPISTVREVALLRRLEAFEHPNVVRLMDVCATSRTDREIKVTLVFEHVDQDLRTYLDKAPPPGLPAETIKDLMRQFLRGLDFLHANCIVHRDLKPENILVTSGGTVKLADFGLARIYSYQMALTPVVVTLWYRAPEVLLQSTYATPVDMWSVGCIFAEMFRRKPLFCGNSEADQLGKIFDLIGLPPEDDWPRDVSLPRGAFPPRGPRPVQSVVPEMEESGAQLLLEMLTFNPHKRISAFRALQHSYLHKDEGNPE
T1 sequence (P24385 whole entry partner): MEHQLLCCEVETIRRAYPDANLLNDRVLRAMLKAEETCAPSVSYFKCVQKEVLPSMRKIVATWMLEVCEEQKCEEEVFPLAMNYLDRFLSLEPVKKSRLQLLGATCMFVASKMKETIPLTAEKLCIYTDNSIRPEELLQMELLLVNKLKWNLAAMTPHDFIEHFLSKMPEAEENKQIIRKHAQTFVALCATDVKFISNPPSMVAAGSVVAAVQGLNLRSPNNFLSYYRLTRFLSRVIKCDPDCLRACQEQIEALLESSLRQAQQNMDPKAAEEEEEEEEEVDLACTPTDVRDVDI
Met, sequence (P08581 1078-1345 limits assumed): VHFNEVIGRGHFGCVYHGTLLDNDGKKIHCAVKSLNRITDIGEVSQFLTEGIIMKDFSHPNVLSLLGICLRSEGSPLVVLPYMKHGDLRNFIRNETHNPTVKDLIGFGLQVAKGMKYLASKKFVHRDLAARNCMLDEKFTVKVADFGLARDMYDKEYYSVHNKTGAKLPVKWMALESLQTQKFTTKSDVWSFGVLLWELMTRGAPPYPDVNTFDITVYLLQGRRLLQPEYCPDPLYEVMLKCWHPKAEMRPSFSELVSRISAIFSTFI

As usually defined, the pIC50 is the IC50 on a negative log10 scale, so that one unit is a factor of ten. Low readings indicate a large IC50, high ones a small IC50. For the molecule `O=C(Nc1cc[nH]n1)Nc1nc2[nH]nc(-n3cncc3-c3ccccc3Cl)c2s1` [1-{3-[5-(2-Chloro-phenyl)-imidazol-1-yl]-1H-pyrazolo[3,4-d]thiazol-5-yl}-3-(1H-pyrazol-3-yl)-urea], the pIC50 in experiment [1] was 6.00 to 7.00; in experiment [2], 6.00 to 7.00; in experiment [3], less than 5.00.

In experiment [3], `O=C(Nc1nc2[nH]nc(-n3cncc3-c3ccc4ccccc4c3)c2s1)C1CC1` [Cyclopropanecarboxylic acid [3-(5-naphthalen-2-yl-imidazol-1-yl)-1H-pyrazolo[3,4-d]thiazol-5-yl]-amide] showed a pIC50 of 5.00 to 6.00.

For the molecule `O=C(Nc1nc2[nH]nc(-n3cncc3-c3ccccc3)c2s1)C1CC1` [Cyclopropanecarboxylic acid [3-(5-phenyl-imidazol-1-yl)-1H-pyrazolo[3,4-d]thiazol-5-yl]-amide], the pIC50 in experiment [2] is 6.00 to 7.00; in experiment [3], less than 5.00.

Consider `O=C(Nc1nc2[nH]nc(-n3cncc3-c3ccccn3)c2s1)C1CC1` [Cyclopropanecarboxylic acid [3-(5-pyridin-2-yl-imidazol-1-yl)-1H-pyrazolo[3,4-d]thiazol-5-yl]-amide], for which the pIC50 in experiment [2] was 6.00 to 7.00; in experiment [3], less than 5.00.

Take `O=C(Nc1nc2[nH]nc(-n3cncc3-c3cc(Cl)cc(Cl)c3Cl)c2s1)C1CC1` [Cyclopropanecarboxylic acid {3-[5-(2,3,5-trichloro-phenyl)-imidazol-1-yl]-1H-pyrazolo[3,4-d]thiazol-5-yl}-amide]: the pIC50 in experiment [1] and in experiment [3] was 5.00 to 6.00 throughout.

As for `O=C(Nc1nc2[nH]nc(-n3cncc3-c3c(Cl)ccc(Cl)c3Cl)c2s1)C1CC1` [Cyclopropanecarboxylic acid {3-[5-(2,3,6-trichloro-phenyl)-imidazol-1-yl]-1H-pyrazolo[3,4-d]thiazol-5-yl}-amide], the pIC50 in experiment [2] and in experiment [3] was 5.00 to 6.00 in each case.

Take `O=C(Nc1nc2[nH]nc(-n3cncc3-c3cccc(F)c3F)c2s1)C1CC1` [Cyclopropanecarboxylic acid {3-[5-(2,3-difluoro-phenyl)-imidazol-1-yl]-1H-pyrazolo[3,4-d]thiazol-5-yl}-amide]: the pIC50 in experiment [1] is more than 7.00; in experiment [2], 6.00 to 7.00; in experiment [3], 5.00 to 6.00.

Take `O=C(Nc1nc2[nH]nc(-n3cncc3-c3c(Cl)cccc3Cl)c2s1)C1CC1` [Cyclopropanecarboxylic acid {3-[5-(2,6-dichloro-phenyl)-imidazol-1-yl]-1H-pyrazolo[3,4-d]thiazol-5-yl}-amide]: the pIC50 in experiment [1] is more than 7.00; in experiment [2] it was 6.00 to 7.00; in experiment [3], 5.00 to 6.00.

`COc1ccc2nc(Cl)c(-c3cncn3-c3n[nH]c4nc(NC(=O)C5CC5)sc34)cc2c1` [Cyclopropanecarboxylic acid {3-[5-(2-chloro-6-methoxy-quinolin-3-yl)-imidazol-1-yl]-1H-pyrazolo[3,4-d]thiazol-5-yl}-amide] had a pIC50 in experiment [3] of 6.00 to 7.00.

Regarding `O=C(Nc1nc2[nH]nc(-n3cncc3-c3ccccc3Cl)c2s1)C1CC1` [Cyclopropanecarboxylic acid {3-[5-(2-chloro-phenyl)-imidazol-1-yl]-1H-pyrazolo[3,4-d]thiazol-5-yl}-amide], the pIC50 in experiment [1] was more than 7.00; in experiment [2], 6.00 to 7.00; in experiment [3], 6.00 to 7.00.

As to `NC(=O)COc1ccc(-c2cncn2-c2n[nH]c3nc(NC(=O)C4CC4)sc23)c(Cl)c1` [Cyclopropanecarboxylic acid {3-[5-(4-carbamoylmethoxy-2-chloro-phenyl)-imidazol-1-yl]-1H-pyrazolo[3,4-d]thiazol-5-yl}-amide], the pIC50 in experiment [1] is more than 7.00; in experiment [3] it was 6.00 to 7.00.

For the molecule `CS(=O)(=O)c1ccc(F)cc1-c1cncn1-c1n[nH]c2nc(NC(=O)C3CC3)sc12` [Cyclopropanecarboxylic acid {3-[5-(5-fluoro-2-methanesulfonyl-phenyl)-imidazol-1-yl]-1H-pyrazolo[3,4-d]thiazol-5-yl}-amide], the pIC50 in experiment [3] is less than 5.00.

The values are drawn from US20070173488A1, “Pyrazolothiazole Protein Kinase Modulators” (SGX Pharmaceuticals, Inc., priority 2005, published 2007).
